This is an account of results in US12053777B2, “Devices and methods for detecting cancerous cells” (Academia Sinica, priority 2019, dated 2024).

Test in all cases: Capture of cells by sulfated octasaccharide-coated magnetic beads on microfluidic chip
Holding throughout (format): cell-based

The test system of one experiment is MMNK-1. The conditions noted are these: for capture rate: MMNK-1 cells; for capture rate, in words: normal cells (MINK-1). The method, then:
(§1) Preparation of magnetic beads pre-coated with a sulfated octasaccharide. The surface of magnetic beads was respectively coated with the sulfated octasaccharides of the present invention (e.g., HS1, HS12 and etc) with three different concentrations (1 μM, 10 μM and 100 μM). Briefly, sulfated octasaccharides were first incubated with Dynabeads® MyOne™ Streptavidin T1 (˜7-10×10^9 beads/mL, Ø=1 μm, Invitrogen Co., USA) in a volume ratio of 1:10 for 30 min. Then beads were collected by using a magnet for 5 min, followed by discarding the supernatant and washing thrice by using 1-mL deionized (DI) water. Finally, the coated beads were suspended in the equal volume of DI water as the initial volume of Dynabeads® taken from the vial.
(§2) The microfluidic chip constructed above was employed to capture cancerous cells. Briefly, 2×10^5 cells from various types of cancerous cell lines were suspended in 100 μL×phosphate buffered saline (PBS) buffer and loaded into six capture chambers, respectively. 10 μL of different concentrations of sulfated octasaccharides coated beads were manually pipetted in the capture chambers, and gently mixed with cells by the micropumps for 15 min. After incubation, the cells were identified and bound by the magnetic beads pre-coated with the sulfated octasaccharides of formula (I) of the present invention. Then, these captured cells were collected with a magnetic force and washed by 1×PBS buffer. After isolating, the beads and captured cells were suspended in 100 μL 1×PBS buffer, and finally loaded into a hemocytometer to calculate the capture rates.
(§3) In a pre-test, total of 8 cancer cell lines (i.e., MMNK-1, SNU-478, HuCCT-1, Huh-28, KKU-100, HepG2, BxPC3, and HCT8) were respectively loaded into the microsystem and incubated with the magnetic beads, then the captured cells were collected with a magnetic force, and finally loaded into a hemocytometer to calculate the capture rates.

Another experiment has as its system KKU-100. The conditions noted are these: KKU-100 cells. The protocol: as §1, §2, §3
A further experiment concerns BxPC3. The protocol:
as §1, §2, §3

The subject of a further experiment is HuCCT-1. Conditions: for capture rate: HuCCT-1 cells; for capture rate, in words: metastasized CCA cells (HuCCT-1). The protocol: as §1, §2, §3
In another experiment the test system is HCT8. The method, then:
as §1, §2, §3

The subject of a further experiment is HepG2. The protocol:
as §1, §2, §3

Another experiment relates to SNU-478. The conditions noted are these: SNU-478 cells. The method, then:
as §1, §2, §3

The subject of experiment [1] is Huh-28. Conditions: for specificity of capture among the eight cell lines: Huh28, a cholangiocarcinoma (CCA) cell line, versus the other cell lines; for capture rate: Huh-28 cells. The method, then: as §1, §2, §3
FIG. 2 illustrates that the cancer cells, Huh-28, could be successfully captured by magnetic beads pre-coated with HS 1 of 100 μM. Huh-28 cells before being captured by magnetic beads are depicted in FIG. 2, panel a. After well mixing Huh-28 cells and beads for 30 mins, cells were surrounded by beads (FIG. 2, panel b). The supernatant collection through an isolation process by magnetic force after 30-min incubation is depicted in FIG. 2, panel c.

The test system of experiment [2] is Huh-28. The conditions noted are these: Huh-28 cells; EpCAM-coated beads.

As to `CC(=O)NC1C(O)[C@H](O)C(CO)O[C@@H]1O[C@@H]1C(C(=O)[O-])O[C@@H](O[C@@H]2C(CO)O[C@H](O[C@@H]3C(C(=O)[O-])O[C@@H](O[C@@H]4C(CO)O[C@H](O[C@@H]5C(C(=O)[O-])O[C@@H](O[C@@H]6C(CO)O[C@H](O[C@@H]7C(C(=O)[O-])O[C@@H](OCCCCCN)C(O)C7O)C(NC(C)=O)C6O)C(O)C5O)C(NC(C)=O)C4O)C(O)C3O)C(NC(C)=O)C2O)C(O)C1O.[Na+].[Na+].[Na+].[Na+]` (stereo partly drawn) [HS 1, 5-Aminopentyl (2-acetamido-2-deoxy-α-D-glucopyranosyl)-(1→4)-α-L-idopyranosiduronyl-(1→4)-(2-acetamido-2-deoxy-α-D-glucopyranosyl)-(1→4)-α-L-idopyranosiduronyl-(1→4)-(2-acetamido-2-deoxy-α-D-glucopyranosyl)-(1→4)-α-L-idopyranosiduronyl-(1→4)-(2-acetamido-2-deoxy-α-D-glucopyranosyl)-(1→4)-α-L-idopyranosiduronate], the capture rate came to 58 ± 11% in the experiment on MMNK-1 (beads coated with HS at 1 μM); 52 ± 6% in the experiment with MMNK-1 (beads coated with HS at 10 μM); 34 ± 5% in the experiment with MMNK-1 (beads coated with HS at 100 μM); 40 ± 10% with KKU-100 (beads coated with HS at 1 μM); 46 ± 1% in the experiment on KKU-100 (beads coated with HS at 10 μM); 51 ± 2% in the experiment with KKU-100 (beads coated with HS at 100 μM). In addition, the capture rate with BxPC3 (beads coated with HS at 1 μM) stood at 15 ± 5%; in the experiment on BxPC3 (beads coated with HS at 10 μM), 18 ± 4%; in the experiment with BxPC3 (beads coated with HS at 100 μM), 13 ± 7%; with HuCCT-1 (beads coated with HS at 1 μM) it was 4 ± 1%; in the experiment with HuCCT-1 (beads coated with HS at 10 μM), 6 ± 2%; with HuCCT-1 (beads coated with HS at 100 μM), 4 ± 1%. The capture rate with HCT8 (beads coated with HS at 1 μM) came to 18 ± 5%; in the experiment with HCT8 (beads coated with HS at 10 μM), 14 ± 4%; with HCT8 (beads coated with HS at 100 μM), 13 ± 3%; with HepG2 (beads coated with HS at 1 μM), 12 ± 0%; in the experiment with HepG2 (beads coated with HS at 10 μM), 16 ± 6%; in the experiment on HepG2 (beads coated with HS at 100 μM), 10 ± 4%. The capture rate with SNU-478 (beads coated with HS at 1 μM) stood at 23 ± 13%; in the experiment on SNU-478 (beads coated with HS at 10 μM), 20 ± 8%; with SNU-478 (beads coated with HS at 100 μM) it was 22 ± 7%; with Huh-28 [1] (beads coated with HS at 1 μM), 65 ± 20%; in the experiment with Huh-28 [1] (beads coated with HS at 10 μM) it was 70 ± 10%; in the experiment on Huh-28 [1] (beads coated with HS at 100 μM) it was 78 ± 14%. This molecule also registered a capture rate in the experiment with Huh-28 [1] (beads coated with HS at 100 μM, listed as HS1) of 78±14%. Further, the “capture rate, in words” value with MMNK-1 and in the experiment on HuCCT-1 was “relatively low” each time. In the experiment with Huh-28 [1], the “specificity of capture among the eight cell lines” value was “highly specific to Huh28”. For the same molecule, the “capture of Huh-28 cells seen in photographs (FIG. 2)” value with Huh-28 [1] (beads coated at 100 μM, 30-min incubation, few cells left in supernatant) was “Almost all of the Huh-28 cells were captured and isolated”.

For `NCCCCCO[C@@H]1O[C@H](C(=O)O)[C@@H](O[C@H]2O[C@H](COS(=O)(=O)O)[C@@H](O[C@@H]3O[C@@H](C(=O)O)[C@@H](O[C@H]4O[C@H](COS(=O)(=O)O)[C@@H](O[C@@H]5O[C@H](C(=O)O)[C@@H](O[C@H]6O[C@H](COS(=O)(=O)O)[C@@H](O[C@@H]7O[C@@H](C(=O)O)[C@@H](O[C@H]8O[C@H](COS(=O)(=O)O)[C@@H](O)[C@H](O)[C@H]8NS(=O)(=O)O)[C@H](O)[C@H]7OS(=O)(=O)O)[C@H](O)[C@H]6NS(=O)(=O)O)[C@H](O)[C@H]5OS(=O)(=O)O)[C@H](O)[C@H]4NS(=O)(=O)O)[C@H](O)[C@H]3OS(=O)(=O)O)[C@H](O)[C@H]2NS(=O)(=O)O)[C@H](O)[C@H]1OS(=O)(=O)O` [HS 12], the capture rate in the experiment with MMNK-1 (beads coated with HS at 1 μM) is on record as 55 ± 7%; in the experiment on MMNK-1 (beads coated with HS at 10 μM), 47 ± 20%; in the experiment with MMNK-1 (beads coated with HS at 100 μM), 16 ± 8%; in the experiment on KKU-100 (beads coated with HS at 1 μM), 42 ± 3%; with KKU-100 (beads coated with HS at 10 μM), 44 ± 2%; in the experiment on KKU-100 (beads coated with HS at 100 μM) it was 41 ± 11%. For the same molecule, the capture rate in the experiment with BxPC3 (beads coated with HS at 1 μM) stood at 16 ± 6%; with BxPC3 (beads coated with HS at 10 μM) it was 11 ± 3%; in the experiment with BxPC3 (beads coated with HS at 100 μM), 7 ± 3%; with HuCCT-1 (beads coated with HS at 1 μM), 5 ± 1%; with HuCCT-1 (beads coated with HS at 10 μM) it was 5 ± 2%; with HuCCT-1 (beads coated with HS at 100 μM), 4 ± 2%. In addition, the capture rate with HCT8 (beads coated with HS at 1 μM) turned out to be 16 ± 3%; in the experiment with HCT8 (beads coated with HS at 10 μM), 13 ± 0%; with HCT8 (beads coated with HS at 100 μM) it was 9 ± 2%; in the experiment on HepG2 (beads coated with HS at 1 μM), 14 ± 1%; in the experiment on HepG2 (beads coated with HS at 10 μM), 11 ± 4%; in the experiment with HepG2 (beads coated with HS at 100 μM), 9 ± 6%. The capture rate came to 20 ± 5% in the experiment with SNU-478 (beads coated with HS at 1 μM); 17 ± 7% in the experiment on SNU-478 (beads coated with HS at 10 μM); 16 ± 8% in the experiment with SNU-478 (beads coated with HS at 100 μM); 66 ± 6% in the experiment on Huh-28 [1] (beads coated with HS at 1 μM); 67 ± 3% with Huh-28 [1] (beads coated with HS at 10 μM); 73±4% in the experiment with Huh-28 [1] (beads coated with HS at 100 μM). Besides, the “capture rate, in words” value in the experiment with MMNK-1 and in the experiment with HuCCT-1 was “relatively low” each time. Further, the “specificity of capture among the eight cell lines” value in the experiment on Huh-28 [1] is on record as “highly specific to Huh28”.

B1: EpCAM: epithelial cell adhesion molecule (EpCAM)-coated beads, comparison capture reagent (protein, UniProt P16422 24-314, looked up)
Epithelial cell adhesion …: QEECVCENYKLAVNCFVNNNRQCQCTSVGAQNTVICSKLAAKCLVMKAEMNGSKLGRRAKPEGALQNNDGLYDPDCDESGLFKAKQCNGTSMCWCVNTAGVRRTDKDTEITCSERVRTYWIIIELKHKAREKPYDSKSLRTALQKEITTRYQLDPKFITSILYENNVITIDLVQNSSQKTQNDVDIADVAYYFEKDVKGESLFHSKKMDLTVNGEQLDLDPGQTLIYYVDEKAPEFSMQGLKAGVIAVIVVVVIAVVAGIVVLVISRKKRMAKYEKAEIKEMGEMHRELNA
modifications: coated on beads
notes: epithelial cell adhesion molecule (EpCAM)-coated beads, comparison capture reagent
Turning to B1, the capture rate with MMNK-1 (EpCAM-coated beads) stood at 58 ± 8%; in the experiment with KKU-100 (EpCAM-coated beads) it was 51 ± 5%; with BxPC3 (EpCAM-coated beads), 45 ± 6%; in the experiment with HuCCT-1 (EpCAM-coated beads), 67 ± 11%; with HCT8 (EpCAM-coated beads), 22 ± 3%; in the experiment on HepG2 (EpCAM-coated beads), 44 ± 7%. In addition, the figures for the capture rate in the experiment with SNU-478 (EpCAM-coated beads) and with Huh-28 [2] were 74 ± 6% and 58±19%, respectively.
